From PMC7409197, “Adenosine Receptors as Neuroinflammation Modulators: Role of A1 Agonists and A2A Antagonists” (Cells, 2020) come the findings set out here.

Data set [1] concerns mixed glial cells. The data set can be described thus: Hoechst assay, cell area and circularity in mixed glial cells. Type of data set: cell-based, rat. The settings on record: compound 1 pre-treatment, compound 2 post-treatment, with CK cocktail. On the procedure:
This assay was carried out using Hoechst 33258. 6 × 10^5 mixed glial cells were seeded in a six well plate. After 24 h the media was eliminated, and cell cultures washed with PBS. Then, they were washed with acetic acid/methanol solution 50:50, again washed with PBS and incubated 10 min with a fixative solution. After this, cells were cleaned with distilled water and incubated light protected for 30 min at rt with Hoechst (1 µg/mL). Finally, the dye was discarded, and cells washed with water. Glycerol solution was added and cells were observed under an Olympus microscope. The cell area and circularity were measured using ImageJ as image analyzing software. Area and circularity were calculated as percentage using the following formula:(1) Area or circularity =area or circularity of treated cells/area or curcularity of control cells × 100

The subject of data set [2] is mixed glial cells. The data set can be described thus: CellTiter 96 AQueous One (MTS) cell viability, ligands alone, mixed glial cells. Type of data set: cell-based, rat. The settings on record: for toxicity in vitro (cell viability): compared with CCPA and ZM241385; for cell viability vs. control: ligand alone. On the procedure:
Newborn male Wistar rats were sacrificed and mixed glial cell cultures were obtained from the cerebral cortices. Cerebral cortices were dissected, and meninges were cleared away. Tissues were treated with trypsin solution (trypsin 0.05% (w/v) trypsin-EDTA 5 mM) for 25 min at 37 °C. The tissue was fully disaggregated by pipetting and the dissociated cells were seeded in a 6-well plate with Dulbecco’s modified Eagle’s/High glucose medium enriched with 100 U/mL penicillin, 100 µg/mL streptomycin and 10% FBS. Fresh medium was changed the next day and then every 3 days decreasing the quantity of FBS. All experiments were carried out after 7–9 days of plating.
Mixed glial cell cultures were divided into 2 groups, one to study A1AR partial agonists and another for A2AAR antagonists. Cells from the first group were pre-treated with 2 µL at three different concentrations of C1 for 15, 30 or 60 min and then with further addition of a pro-inflammatory cocktail of cytokines (TNF-α, 20 ng/mL; IL-1β, 20 ng/mL; IFN-γ 20 ng/mL) for 48 h. […] To study C2 cells were pre-treated with the same CK cocktail for 48 h and then with 2 µL of C2 at three different concentrations for 15, 30, or 60 min (Scheme 1). ZM241385, a well known A2AAR antagonist, was used as reference compound. Furthermore, ligands and CK were tested alone for 15, 30 or 60 min and 48 h respectively.
1.7 × 10^4 mixed glial cells were cultured in 98 μL of the specific medium in a 96 well plate overnight. The next day 2 μL of ligand or CK cocktail were added to the well. After all treatments, 20 µL of CellTiter 96® AQueous One Solution Reagent was added in a final volume of 100 µL. Absorbance was read at 490 nm using the plate reader GENiosPro. Cell viability was calculated as percentage using the following formula: Cell viability =OD mean of treated cells/OD mean of control cells × 100

Data set [3] has as its system mixed glial cells. The data set can be described thus: Griess assay (nitrite production) in mixed glial cells. The settings on record: 30 min. Type of data set: cell-based, rat. On the procedure: To test the antioxidant capacity of these new molecules Griess assay was performed. The Griess Reagent System is based in the conversion of sulphanilamide into an azo-compound with the presence of N-1-napthylenediamide dihydrochloride (NED) under acidic condition. 1.7 × 10^4 mixed glial cells were cultured in 98 μL of the specific medium in a 96 well plate overnight. After 24 h the media from each well of the cell culture was transferred into a 96 well plate and then 50 µL of the sulphanilamide solution was added to each well. After 5–10 min of incubation at room temperature (rt), 50 µL of the NED Solution were dispensed to all wells and they were incubated at rt for other 5–10 min. Absorbance was measured within 30 min in the plate reader GENiosPro with a filter between 520 nm and 550 nm. This experiment was performed 3–5 replicates. Concentration of NO¬¬¬¬2¯ in each sample was determined by comparison to a Nitrite standard reference curve.
(Nitrite, measured by Griess reagent, commonly stands in for NO production.)

Another data set has as its system Sprague Dawley rats. The data set can be described thus: Y Maze short-term memory in LPS neuroinflammation rat model. The settings on record: for short-term memory impairment by LPS (novel arm preference, Y Maze) / short-term memory performance, compound alone (Y Maze): rats; for short-term memory performance, compound alone (Y Maze): saline instead of LPS. Type of data set: in vivo. On the procedure: Animal procedures were performed in accordance with the European Community guidelines (Directive 2010/63/EU), Portuguese law on animal care (DL 113/2013), and approved by the Instituto de Medicina Molecular Internal Committee and the Portuguese Animal Ethics Committee (Direcção Geral de Veterinária). Environmental conditions were kept constant: food and water ad libitum, 21 ± 0.5 °C, 60% ± 10% relative humidity, 12 h light/dark cycles, 3–5 rats per double-decker ventilated cage. Male Sprague Dawley rats 8 weeks old were divided into the following groups (Table 1):
C1 was dissolved in 5% DMSO + 95% H2O to a final concentration of 7 mg/mL and C2 was dissolved in DMSO to a final concentration of 5 mg/mL. Accordingly, vehicle for G1 was 5% DMSO + 95% H2O and for G2 was DMSO.
Animals were anesthetized with a cocktail of 75 mg/kg ketamine + 1 mg/kg dexmedetomidine. Once rats were deeply anesthetized, the head was fixed into a stereotaxic frame and an incision made on the scalp to expose the skull. Coordinates for injection were AP -1.0, ML ± 1.5, DV -3.7 mm. For G1, LPS was delivered bilaterally 5 µL of a 1 µg/µL LPS solution per hemisphere, and C1 was delivered also i.c.v. 15 min before the LPS injection, 5 µL of a 7 µg/µL solution. Flow rate was kept at 1 µL/min, using an automatic injector coupled to a 10 µL hamilton syringe gauge 30. After each injection, 5 min were allowed for diffusion of the drugs before slowly removing the needle. After the procedure, rats were sutured, administered atipamezole (1 mg/kg) to reverse anesthesia, and brought back to a heated cage until fully recovered. For G2, rats were injected i.p. with a 2.5 mg/kg solution of C2, 30 min after the i.c.v. injection of LPS 5 µg/5 µL per hemisphere, in total of 10 µg. Rats were monitored for sickness behavior (body temperature, general activity) and given access to gel food in the first 48 h.
Y Maze is a behavior test useful to measure short-term spatial working memory. Animals are introduced in the maze always in the same starting position, at the end of the start arm. An initial habituation phase of 8 min, animals freely explore 2 of the arms, the 3rd being closed. Sixty minutes after the habituation period animals are placed again in the maze for 5 min this time with all 3 arms available to exploration. Using the Smart video tracing software, each animal’s route was registered. The time spent in the arm initially closed, which for the animal is the novel, unexplored environment, is calculated in relation to the time spent in the already familiar arms.

As for `CCn1c(Cl)nc2c(N)nc(OCCc3ccccc3)nc21` [Compound C2, 8-chloro-9-ethyl-2-phenethoxyadenine], in the data set on mixed glial cells [1], the “cell area and circularity (Hoechst), effect against CK aggression” value is “protective effect”. For the same molecule, in the data set with mixed glial cells [2], the “toxicity in vitro (cell viability)” value is given as “no toxic effect”. In addition, the “cell viability vs. control” value in the data set with mixed glial cells [2] (10 nM, 15 min) is recorded as 110 ± 2.7%; in the data set on mixed glial cells [2] (10 nM, 30 min), 127 ± 3.1%; in the data set with mixed glial cells [2] (10 nM, 60 min), 125 ± 4.3%; in the data set on mixed glial cells [2] (60 nM, tendency to toxicity), ~80%. The “nitrite levels in presence of CK cocktail” value in the data set on mixed glial cells [3] (10 nM, after CK cocktail) is recorded as “able to decrease the high nitrite levels”. Besides, the “levels of nitrite produced” value with mixed glial cells [3] (10 nM, alone) is given as “lower than those obtained in control”. Moreover, the “blood brain barrier (BBB) crossing” value in the data set on Sprague Dawley rats (inferred from rescue of CNS insult after i.p. injection in rats) is recorded as “readily crosses the BBB”. Further, the “short-term memory impairment by LPS (novel arm preference, Y Maze)” value in the data set with Sprague Dawley rats (2.5 mg/kg i.p. 30 min after i.c.v. LPS) is reported as “rescued”. Moreover, the “short-term memory performance, compound alone (Y Maze)” value in the data set with Sprague Dawley rats (2.5 mg/kg i.p.) is “devoid of any effects in memory performance”.
`OC[C@H]1O[C@@H](n2cnc3c(NC4CCCC4)nc(Cl)nc32)C[C@@H]1O` [Compound C1, 2-chloro-N^6-cyclopentyl-2′-deoxyadenosine]: the “cell area and circularity (Hoechst), effect against CK aggression” value in the data set on mixed glial cells [1] is given as “protective effect”. Besides, in the data set with mixed glial cells [2], the “toxicity in vitro (cell viability)” value was “no toxic effect”. For the same molecule, the “cell viability vs. control” value in the data set on mixed glial cells [2] (5.5 µM, 30 min) is 116 ± 1.7%; in the data set with mixed glial cells [2] (30 µM, 15 min), 117 ± 1.3%. For the same molecule, the “antioxidant activity (Griess)” value in the data set on mixed glial cells [3] (5.5 µM, alone and in combination with CK) is “did not show any antioxidant activity”. The “short-term memory impairment by LPS (novel arm preference, Y Maze)” value in the data set on Sprague Dawley rats (i.c.v. 5 µL of 7 µg/µL 15 min before i.c.v. LPS) is recorded as “rescued”. Further, the “short-term memory performance, compound alone (Y Maze)” value in the data set with Sprague Dawley rats (i.c.v.) was “reduction in the short-term memory performance”.
